Data taken from patent US20230106943A1, “ENGINEERED ANTIMICROBIAL PEPTIDES AND USAGE THEREOF” (Peptilogics, Inc., priority 2021, published 2023).
No end group written: not given here.

Experiment: Example 4 stability of concentrated solutions: HPLC-UV Assay/RS (method 78917)
Type: physicochemical
Procedure: The peptide formulation of SEQ ID NO: 1 dissolved in a saline solution with a pH of 5.0±0.1 was tested for stability under either −20° C. or 40° C. with 75% relative humidity (RH). […]

[1] = 15.3 mg/mL solution, 40° C. and 75% RH, 1 Month
[2] = 15.3 mg/mL solution, 40° C. and 75% RH, 2 Month
[3] = 15.3 mg/mL solution, 40° C. and 75% RH, 3 Month
[4] = 15.3 mg/mL solution, 40° C. and 75% RH, 6 Month
[5] = 15.3 mg/mL solution, −20° C., 0 Month
[6] = 15.3 mg/mL solution, −20° C., 1 Month
[7] = 15.3 mg/mL solution, −20° C., 2 Month
[8] = 15.3 mg/mL solution, −20° C., 3 Month
[9] = 15.3 mg/mL solution, −20° C., 6 Month
[10] = 15.3 mg/mL solution, −20° C., 9 Month
[11] = 36.7 mg/mL solution, 40° C. and 75% RH, 1 Month
[12] = 36.7 mg/mL solution, 40° C. and 75% RH, 2 Month
[13] = 36.7 mg/mL solution, 40° C. and 75% RH, 3 Month
[14] = 36.7 mg/mL solution, 40° C. and 75% RH, 6 Month
[15] = 36.7 mg/mL solution, −20° C., 0 Month
[16] = 36.7 mg/mL solution, −20° C., 1 Month

For “RRWVRRVRRVWRRVVRVVRRWVRR-NH2 [SEQ ID NO: 1]”, the “HPLC-UV Assay/RS % Assay” value [1] was 96.0%, the “HPLC-UV Assay/RS % Purity” value [1] was 99% and the “HPLC-UV Assay/RS % Total Impurities” value [1] was 1.0%. The “RRT 1.02 Mean % Area” value [1] was 1.0%, the “RRT […] area (Inj-1)” value [1] was 0.97% and the “RRT […] area (Inj-2)” value [1] was 0.95%. The “SEQ ID NO: 1 % area (Inj-1)” value [1] was 99.03%, the “SEQ ID NO: 1 % area (Inj-2)” value [1] was 99.05% and the “SEQ ID NO: 1 Mean % Area” value [1] was 99.0%. The “HPLC-UV Assay/RS % Assay” value [2] was 103.8%, the “HPLC-UV Assay/RS % Purity” value [2] was 99% and the “HPLC-UV Assay/RS % Total Impurities” value [2] was 1.4%. For the same substance, the “HPLC-UV Assay/RS Impurities RRT/%, RRT 1.02” value [2] was 1.02/1.0%, the “HPLC-UV Assay/RS Impurities RRT/%, RRT 1.08” value [2] was 1.08/0.2% and the “HPLC-UV Assay/RS Impurities RRT/%, RRT 1.10” value [2] was 1.10/0.2%. For the same substance, the “HPLC-UV Assay/RS % Assay” value [3] was 96.8%, the “HPLC-UV Assay/RS % Purity” value [3] was 99% and the “HPLC-UV Assay/RS % Total Impurities” value [3] was 1.3%. For the same substance, the “HPLC-UV Assay/RS Impurities RRT/%, RRT 1.02” value [3] was 1.02/1.1%, the “HPLC-UV Assay/RS Impurities RRT/%, RRT 1.25” value [3] was 1.25/0.2% and the % assay [4] was 97.5%. For the same substance, the “HPLC-UV Assay/RS % Purity” value [4] was 98%, the “HPLC-UV Assay/RS % Total Impurities” value [4] was 2.5% and the “HPLC-UV Assay/RS % Assay” value [5] was 99.8%. The “HPLC-UV Assay/RS % Purity” value [5] was 99.0%, the “HPLC-UV Assay/RS % Total Impurities” value [5] was 1.0% and the “RRT 1.02 Mean % Area” value [5] was 1.0%. For the same substance, the “RRT […] area (Inj-1)” value [5] was 1.05%, the “RRT […] area (Inj-2)” value [5] was 1.03% and the “SEQ ID NO: 1 % area (Inj-1)” value [5] was 98.95%. The “SEQ ID NO: 1 % area (Inj-2)” value [5] was 98.97%, the “SEQ ID NO: 1 Mean % Area” value [5] was 99.0% and the “HPLC-UV Assay/RS % Assay” value [6] was 103.4%. The “HPLC-UV Assay/RS % Purity” value [6] was 99%, the “HPLC-UV Assay/RS % Total Impurities” value [6] was 0.9% and the “RRT 1.02 Mean % Area” value [6] was 0.9%. For the same substance, the “RRT […] area (Inj-1)” value [6] was 0.88%, the “RRT […] area (Inj-2)” value [6] was 0.87% and the “SEQ ID NO: 1 % area (Inj-1)” value [6] was 99.12%. The “SEQ ID NO: 1 % area (Inj-2)” value [6] was 99.13%, the “SEQ ID NO: 1 Mean % Area” value [6] was 99.1% and the “HPLC-UV Assay/RS % Assay” value [7] was 106.0%. The “HPLC-UV Assay/RS % Purity” value [7] was 99%, the “HPLC-UV Assay/RS % Total Impurities” value [7] was 0.9% and the “HPLC-UV Assay/RS Impurities RRT/%, RRT 1.02” value [7] was 1.02/0.9%. The “HPLC-UV Assay/RS % Assay” value [8] was 99.7%, the “HPLC-UV Assay/RS % Purity” value [8] was 99% and the “HPLC-UV Assay/RS % Total Impurities” value [8] was 0.9%. The “HPLC-UV Assay/RS Impurities RRT/%, RRT 1.02” value [8] was 1.02/0.9%, the “HPLC-UV Assay/RS % Assay” value [9] was 102.1% and the “HPLC-UV Assay/RS % Purity” value [9] was 99%. For the same substance, the “HPLC-UV Assay/RS % Total Impurities” value [9] was 0.9%, the “HPLC-UV Assay/RS Impurities RRT/%, RRT 1.02” value [9] was 1.02/0.9% and the “HPLC-UV Assay/RS % Assay” value [10] was 101.0%. The “HPLC-UV Assay/RS % Purity” value [10] was 100%, the “HPLC-UV Assay/RS % Total Impurities” value [10] was 0.3% and the “HPLC-UV Assay/RS Impurities RRT/%, RRT 1.01” value [10] was 1.01/0.3%. The “% Purity” value [11] was 99%, the “% Total Impurities” value [11] was 0.9% and the “HPLC-UV % Assay” value [11] was 97.5%. The “RRT 1.02 impurity % area (Inj-1)” value [11] was 0.94 % area, the “RRT 1.02 impurity % area (Inj-2)” value [11] was 0.91 % area and the “RRT 1.02 impurity Mean % Area” value [11] was 0.9 % Area. The “SEQ ID NO: 1 peak % area (Inj-1)” value [11] was 99.06 % area, the “SEQ ID NO: 1 peak % area (Inj-2)” value [11] was 99.09 % area and the “SEQ ID NO: 1 peak Mean % Area” value [11] was 99.1 % Area. For the same substance, the “% Purity” value [12] was 99%, the “% Total Impurities” value [12] was 1.2% and the “HPLC-UV % Assay” value [12] was 101.7%. For the same substance, the “% Purity” value [13] was 99%, the “% Total Impurities” value [13] was 1.5% and the “HPLC-UV % Assay” value [13] was 97.3%. For the same substance, the “% Purity” value [14] was 97%, the “% Total Impurities” value [14] was 3.0% and the “HPLC-UV % Assay” value [14] was 94.8%. The “HPLC-UV Assay/RS % Assay” value [15] was 97.9%, the “HPLC-UV Assay/RS % Purity” value [15] was 99.0% and the “HPLC-UV Assay/RS % Total Impurities” value [15] was 1.0%. The “RRT 1.02 Mean % Area” value [15] was 1.0%, the “RRT […] area (Inj-1)” value [15] was 1.02% and the “RRT […] area (Inj-2)” value [15] was 1.03%. The “SEQ ID NO: 1 % area (Inj-1)” value [15] was 98.98%, the “SEQ ID NO: 1 % area (Inj-2)” value [15] was 98.97% and the “SEQ ID NO: 1 Mean % Area” value [15] was 99.0%. The “HPLC-UV Assay/RS % Assay” value [16] was 98.6%, the “HPLC-UV Assay/RS % Purity” value [16] was 99% and the “HPLC-UV Assay/RS % Total Impurities” value [16] was 0.9%. For the same substance, the “RRT 1.02 Mean % Area” value [16] was 0.9%, the “RRT […] area (Inj-1)” value [16] was 0.87% and the “RRT […] area (Inj-2)” value [16] was 0.88%.
